Assays:
Aurora-1 (Aurora B) = Aurora-1 (Aurora B) (Homo sapiens, UniProt Q96GD4); assay: Aurora-1 (Aurora B) Inhibition Assay (radiometric); assay type: biochemical; conditions: 800 μM ATP; read-out: Aurora B kinase activity Ki
Outline: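 Enzyme at 22 nM in solution with 1.5 mM Kemptide (LRRASLG) in 25 mM HEPES pH 7.5, 10 mM MgCl2, 0.1% BSA, 10% glycerol, 1.7 mM DTT. Compound pre-equilibrated 10 min at 25° C, then [γ-33P]-ATP added at 800 μM final for 3 h. 33P peptide incorporation by phosphocellulose capture and scintillation counting. Ki from initial rates by non-linear regression.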

[1] = target: T1, T315I mutant of human Abl (Homo sapiens, UniProt P00519, T315I); assay: Mutant Abl Kinase (T315I) Activity Inhibition Assay (Upstate, radiometric); assay type: biochemical
T1 construct: purchased Upstate Cell Signaling Solutions (Dundee, UK)

Aurora-2 (Aurora A) = target: T2, Aurora-2 (Aurora A) (Homo sapiens, UniProt O14965); assay: Aurora-2 (Aurora A) Inhibition Assay, coupled enzyme assay; assay type: biochemical; conditions: 400 μM ATP, 30° C.; read-out: Aurora A kinase activity Ki
T2 sequence (O14965 1-403): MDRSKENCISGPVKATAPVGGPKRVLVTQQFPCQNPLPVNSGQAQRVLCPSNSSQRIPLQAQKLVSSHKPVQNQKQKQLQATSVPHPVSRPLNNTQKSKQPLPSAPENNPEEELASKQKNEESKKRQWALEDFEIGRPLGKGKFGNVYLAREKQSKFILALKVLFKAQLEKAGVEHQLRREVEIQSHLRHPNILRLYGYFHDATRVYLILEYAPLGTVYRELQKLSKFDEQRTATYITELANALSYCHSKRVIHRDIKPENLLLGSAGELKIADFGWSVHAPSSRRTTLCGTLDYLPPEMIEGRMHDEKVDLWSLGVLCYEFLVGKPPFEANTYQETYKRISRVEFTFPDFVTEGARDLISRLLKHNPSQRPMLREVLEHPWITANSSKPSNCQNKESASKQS
Outline: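 Coupled pyruvate kinase/LDH assay (NADH read-out) with 40 nM Aurora-2, 400 μM ATP and 570 μM Kemptide in 100 mM Hepes pH 7.5, 10 mM MgCl2, at 30 °C. Compound preincubated 10 min (serial dilutions typically from 7.5 μM final); initial rates over 10 min, IC50 and Ki by non-linear regression.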

Colo205 cells = assay: Analysis of Cell Proliferation, 3H thymidine incorporation; assay type: cell-based; conditions: Homo sapiens, COLO 205, 72 h, 72 hours, read-out: IC50 cell proliferation after 72 hours
Outline: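 Serially diluted compound added in duplicate to Colo205 cells, 0.1% DMSO diluent control, incubated 72 or 96 hrs at 37C, 5% CO2. 0.5 μCi 3H thymidine added 3 h before end; incorporated radioactivity counted by beta-counter and dose-response curves fitted.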

[2] = target: N-terminally truncated (Δ 27) Abl kinase (Homo sapiens, UniProt P00519); assay: Abl Kinase Activity Inhibition Assay, coupled enzyme system; assay type: biochemical; conditions: 110 μM ATP, 30° C.
Protocol: Compounds were screened for their ability to inhibit N-terminally truncated (Δ 27) Abl kinase activity using a standard coupled enzyme system (Fox et al., Protein Sci., 7, pp. 2249 (1998)). Reactions were carried out in a solution containing 100 mM HEPES (pH 7.5), 10 mM MgCl2, 25 mM NaCl, 300 μM NADH, 1 mM DTT and 3% DMSO. Final substrate concentrations in the assay were 110 μM ATP (Sigma Chemicals, St Louis, Mo.) and 70 μM peptide (EAIYAAPFAKKK, American Peptide, Sunnyvale, Calif.). Reactions were carried out at 30° C. and 21 nM Abl kinase. Final concentrations of the components of the coupled enzyme system were 2.5 mM phosphoenolpyruvate, 200 μM NADH, 60 μg/ml pyruvate kinase and 20 μg/ml lactate dehydrogenase.
An assay stock buffer solution was prepared containing all of the reagents listed above with the exception of ATP and the test compound of interest. The assay stock buffer solution (60 μl) was incubated in a 96 well plate with 2 μl of the test compound of interest at final concentrations typically spanning 0.002 μM to 30 μM at 30° C. for 10 min. Typically, a 12 point titration was prepared by serial dilutions (from 1 mM compound stocks) with DMSO of the test compounds in daughter plates. The reaction was initiated by the addition of 5 μl of ATP (final concentration 110 μM). Rates of reaction were obtained using a Molecular Devices Spectramax plate reader (Sunnyvale, Calif.) over 10 min at 30° C. The Ki values were determined from the residual rate data as a function of inhibitor concentration using nonlinear regression (Prism 3.0, Graphpad Software, San Diego, Calif.).

Chain of Aurora-1 (Aurora B) (Q96GD4 whole entry): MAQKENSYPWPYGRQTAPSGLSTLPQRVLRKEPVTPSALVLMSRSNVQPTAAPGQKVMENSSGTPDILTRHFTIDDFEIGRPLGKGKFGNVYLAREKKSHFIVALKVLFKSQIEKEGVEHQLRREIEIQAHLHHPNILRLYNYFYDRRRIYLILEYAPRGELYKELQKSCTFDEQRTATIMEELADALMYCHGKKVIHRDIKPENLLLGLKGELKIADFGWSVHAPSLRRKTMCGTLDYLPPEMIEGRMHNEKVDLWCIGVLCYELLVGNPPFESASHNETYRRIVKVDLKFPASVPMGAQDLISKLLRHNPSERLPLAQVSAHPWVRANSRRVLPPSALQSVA

Row | Ki (Aurora-1 (Aurora B)) [nM] | Ki [1] [nM] | Ki (Aurora-2 (Aurora A)) [nM] | IC50 (Colo205 cells) [nM] | Ki [2] [nM] | Structure (SMILES)
1 | ≤ 10 | < 200 | ≤ 10 | ≤ 25 | 25 to 100 | Cc1cc(Nc2cc(N3CC4CCCN(C)C4C3)nc(Sc3ccc(NC(=O)CC(F)(F)F)cc3)n2)[nH]n1 (stereo not drawn) [Compound I-69, 3,3,3-trifluoro-N-(4-(4-(3-methyl-1H-pyrazol-5-ylamino)-6-(1-methyltetrahydro-1H-pyrrolo[3,4-b]pyridin-6(2H,7H,7aH)-yl)pyrimidin-2-ylthio)phenyl)propanamide]
2 | ≤ 10 | < 200 | ≤ 10 | ≤ 25 | 25 to 100 | Cc1cc(Nc2cc(N3CCC(F)C3)nc(Sc3ccc(NC(=O)CC(F)(F)F)cc3)n2)[nH]n1 (stereo not drawn) [Compound I-71]
3 | ≤ 10 | < 200 | ≤ 10 | ≤ 25 | 25 to 100 | Cc1cc(Nc2cc(N3CCC(N4CCC(F)C4)CC3)nc(Sc3ccc(NC(=O)CC(F)(F)F)cc3)n2)[nH]n1 (stereo not drawn) [Compound I-63]

Source: US20100137305A1, “AMINOPYRIMIDINES USEFUL AS KINASE INHIBITORS” (VERTEX PHARMACEUTICALS INCORPORATED, priority 2008, published 2010)
